Assays:
[1] = distribution coefficient butanol/water, pH 7.4; assay type: physicochemical; settings: meglumine salts
Text: By providing the compounds of this invention wherein only one of the two 5,5',-position hydrogen atoms is substituted, new contrast-producing substances are obtained. […] This can be shown by comparing the values of protein binding, compatibility, biliary and renal excretion of the meglumine salts of the conventional agent iodipamide (B) and an agent of this invention, hexane-diacid-1-(3-carboxy-2,4,6-triiodo-anilide)-6-(3-carboxy-5-N-methyl- carbamoyl-2,4,6-triido-anilide) (A).

rat [2] = assay: LD50, i.v., rat; assay type: in vivo; settings: meglumine salt solutions 180 mg iodine per ml, 0.8 ml/minute
Protocol: (1) The contrast media were injected in the form of meglumine salt
solutions of 180 mg of iodine per ml at a rate of 0.8 ml/minute into male

rat [3] = assay: ED50 rat, pericerebrally (excitation, grave behavioral anomalies, coma and death over 24 h); assay type: in vivo; settings: pericerebral (intracerebral) injection, 0.4 ml, rats about 100 g
Protocol: (2) Male and female rats of about 100 g in weight were injected
intracerebrally between the cheekbone and the occiputal bone through a
natural bone hole of the cranium while being slightly anesthesized with
ether. 0.4 ml injections of contrast media solutions of various
concentrations were used according to the method of Valzelli. The
injection was carried out with a Hamilton syringe 710 N for which the
penetration depth is limited to 10 mm. Depending on the preparation, at
(§1) least 4 doses were tested on 10 animals. The effectiveness criteria used
(§2) are the states of excitation, grave behavioral anomalies, coma and death
(§3) over the period of 24 h.

rat [4] = assay: ED50 rat, intracisternal; assay type: in vivo; settings: 200-250 g rat, diluted with 3% mannite solution
Protocol: as §1, §2, §3
(3) With the test equipment essentially the same ss in (2), 200-250 g rat
are injected with contrast media in the cisterna suboccipitalis. The
contrast media were diluted with a 3% mannite solution to adjust the […]

dog liver = assay: computer tomography: maximum enrichment of contrast medium in dog liver; assay type: in vivo, dog (beagle); settings: 360 mg I/kg, intravenous, meglumine salt solutions 180 mg of I/ml, beagles
Text: The extraordinarily pronounced enrichment of the compounds of this invention is shown in Table 2 listing the maximal enrichment in the liver following intravenous administration of the meglumine salt solutions of the prior art iosefamic acid (D) and of a compound of this invention, 3-oxapentane-diacid-1-([…]-2,4,6-triiodo-N-methylanilide)-5-(3-carboxy-5-N-methylcarbamoyl-2,4,6-triiodo-anilide) (E).
The values were obtained from healthy male and female beagles (Schering, breeder) with weights of 9-14 kg. The meglumine salt solutions contained 180 mg of I/ml.
The investigation of the x-ray density of the liver before administration of the contrast media and every 5 minutes up to 90 minutes thereafter was carried out using a full-body scanner of the EMI CT 5005/12 type, which operates on the basis of the rotation-translation principle. The scanning time was 20 seconds, the tube voltage 120 kv. For an image matrix of 320×320 elements, the standard deviation from the mean value of a normalized water phantom was 1.6% (i.e., +/-8 EU=EMI units). The computer tomograms were analyzed always on the same liver area by means of the analyzer "IVC" of the EMI Co.

liver parenchyma [5] = settings: cited from earlier work
liver parenchyma [6] = settings: cited from earlier work; remark: listed apart in the source

SMILES | distribution coefficient, butanol/water, pH 7.4 [1] | LD50, i.v., rat (rat [2]) | rat, pericerebrally ED50 (rat [3]) | rat, intracisternal ED50 (rat [4]) | Maximum enrichment in dog liver (dog liver) | time of maximum enrichment in dog liver (min. p. appl.) (dog liver) | liver concentration for diagnosis improvement, dog (liver parenchyma [5]) | liver concentration for diagnosis improvement, humans (liver parenchyma [6])
O=C(CCCCC(=O)Nc1c(I)cc(I)c(C(=O)O)c1I)Nc1c(I)cc(I)c(C(=O)O)c1I [B, iodipamide] | 0.278 +/- 0.008 | 2.6 g of I/kg | 6.35 (5.11-7.44) mg of I/kg | 1.07 (0.54-1.83) mg of I per kg |  |  |  | 
CNC(=O)c1c(I)c(NC(=O)CCCCC(=O)Nc2c(I)cc(I)c(C(=O)O)c2I)c(I)c(C(=O)O)c1I [Compound A, Hexane-diacid-1-(3-carboxy-2,4,6-triiodo-anilide)-6-(3-carboxy-5-N-methylcarbamoyl-2,4,6-triiodo-anilide)] | 0.083 +/- 0.001 | 5.5 g of I/kg | 17.1 (11.8-23.6) mg of I/kg | 15.6 (11.5-21.1) mg of I per kg |  |  |  | 
CNC(=O)c1c(I)c(NC(=O)CCCCCCCCC(=O)Nc2c(I)c(C(=O)O)c(I)c(C(=O)NC)c2I)c(I)c(C(=O)O)c1I [D, iosefamic acid] |  |  |  |  | 22.8 EMI units | 80 min. p. appl. | still adequate liver concentration for diagnosis improvement in the dog | not in humans
CNC(=O)c1c(I)c(NC(=O)COCC(=O)N(C)c2c(I)cc(I)c(C(=O)O)c2I)c(I)c(C(=O)O)c1I [E, 3-oxapentane-diacid-1-(3-carboxy-2,4,6-triiodo-N-methylanilide)-5-(3-carboxy-5-N-methylcarbamoyl-2,4,6-triiodo-anilide)] |  |  |  |  |  | 90 min. p. appl. |  | 
